{"source": "patent US20240102016A1", "about": "“APPLICATION OF VEGFR GENE EXPRESSION INHIBITOR IN PREPARING PREPARATION OR AS PREPARATION FOR TREATING PSORIASIS” (priority 2022, published 2024)", "assay_type_in_all_cases": "in vivo", "key": {"[1]": {"system": "IMQ-induced psoriatic mice", "assay": "H&E staining of skin sections and PASI scores in IMQ-induced psoriatic mice", "details": "skin smeared with SU5205, 10 kg/kg/d, 150 μL, 4 h before IMQ cream; compared with the IMQ-induced mice", "text": "(§1) In the embodiment of the disclosure, psoriatic mice coated with VEGFR inhibitors are constructed as follows: dissolving the VEGFR inhibitor SU5205 in dimethyl sulfoxide (DMSO) solution to prepare stock solution, diluting the stock solution with cyclodextrin, and coating the stock solution with a concentration of […] (referred to a daily dosage per kilogram of body weight of the psoriatic mice) on the psoriatic mice. 7-8-week wild-type mice are taken with back hair shaved and an exposed skin area of 2 cm×2 cm. 150 μL of the VEGFR inhibitor solution is coated on the skin surface. The normal control mice are coated with control reagent (with 150 μL of DMSO and cyclodextrin). The psoriatic mice and the normal control mice are respectively coated with Imiquimod (IMQ) cream or control reagent VAS on the exposed skin in 4 h later of the above operation.\n(§2) In the embodiment of the disclosure, the psoriatic mice subcutaneously injected with VEGF are constructed as follows: dissolving VEGF165 protein in DMSO solution to prepare stock solution, diluting the stock solution with cyclodextrin, and smearing the mice with the stock solution with a concentration of […]. 7-8-week wild-type mice are taken with back hair shaved and an exposed skin area of 2 cm×2 cm. 100 μL of the VEGF165 solution is injected subcutaneously the skin surface of the mice. […]"}, "[2]": {"system": "RASGRP1 downstream pathway", "assay": "Western blot of RASGRP1 downstream pathway proteins in skin tissues of psoriatic mice", "details": "skin smeared with SU5205; compared with the IMQ-induced mice", "text": "as §1\nIn the embodiment of the disclosure, the psoriatic mice subcutaneously injected with VEGF are constructed as follows: dissolving VEGF165 protein in DMSO solution to prepare stock solution, diluting the stock solution with cyclodextrin, and smearing the mice with the stock solution with a concentration of […]. 7-8-week wild-type mice are taken with back hair shaved and an exposed skin area of 2 cm×2 cm. 100 μL of the VEGF165 solution is injected subcutaneously the skin surface of the mice. The normal control mice are injected with control reagent subcutaneously (with 100 μL of DMSO and cyclodextrin). The psoriatic mice subcutaneously injected with VEGF165, and the normal control mice are respectively smeared IMQ cream or control reagent VAS on the exposed skin in 4 h later of the injections."}, "[3]": {"system": "RASGRP1+T cells and IL-17A+T cells", "assay": "Flow cytometry of RASGRP1+T cells and IL-17A+T cells in skin tissues of psoriatic mice", "details": "skin smeared with SU5205", "text": "as §1, §2"}}, "data": [{"smiles": "O=C1Nc2ccccc2/C1=C/c1ccc(F)cc1", "note": "[SU5205]", "values": [{"measurement": "psoriasis phenotypes (dorsal skin thickness, erythema, scaling; H&E staining and PASI scores)", "setting": "[1]", "value": "significantly reduced"}, {"measurement": "active protein level of IL-1β in skin tissues", "setting": "[2]", "value": "significantly lower"}, {"measurement": "active protein level of NF-κB in skin tissues", "setting": "[2]", "value": "significantly reduced"}, {"measurement": "active protein level of phosphorylated AKT in skin tissues", "setting": "[2]", "value": "significantly reduced"}, {"measurement": "IL-17A+T cells in skin tissues", "setting": "[3]", "value": "decrease significantly"}, {"measurement": "Rasgrp1+T cells in skin tissues", "setting": "[3]", "value": "decrease significantly"}]}]}
